Laboratory results reported in the NIST ThermoML archive (doi:10.1016/j.fluid.2014.10.004).
Numbers after ± are expanded uncertainties.

Key:
[1] = xn = mol fraction of the nth substance listed; details: 101.3 kPa, Liquid, Sing-around technique in a fixed-path interferometer
[2] = refractive index (Na D-line) (dimensionless); xn = mol fraction of the nth substance listed; details: 101.3 kPa, Liquid, Standard Abbe refractometry
[3] = refractive index (Na D-line) (dimensionless); details: 101.33 kPa, Liquid, Standard Abbe refractometry
[4] = 101.3 kPa, Liquid, Sing-around technique in a fixed-path interferometer

C[N+](=O)[O-] [nitromethane] + ClC(Cl)Cl
Details	refractive index, 298.15 K	refractive index, 308.15 K	refractive index, 318.15 K	speed of sound, 298.15 K [m/s]	speed of sound, 308.15 K [m/s]	speed of sound, 318.15 K [m/s]
[1], x2 = 0	–	–	–	1321.3 ± 1.8	1281.8 ± 1.8	1242.4 ± 1.7
[1], x2 = 0.1197	–	–	–	1253.7 ± 1.7	1215.5 ± 1.7	1177.5 ± 1.7
[1], x2 = 0.1772	–	–	–	1225 ± 1.7	1187.5 ± 1.7	1150.1 ± 1.7
[1], x2 = 0.3007	–	–	–	1171.2 ± 1.7	1134.6 ± 1.7	1098.1 ± 1.7
[1], x2 = 0.4009	–	–	–	1133.6 ± 1.6	1097.8 ± 1.6	1062 ± 1.6
[1], x2 = 0.5	–	–	–	1101.3 ± 1.6	1065.9 ± 1.6	1030.7 ± 1.6
[1], x2 = 0.5978	–	–	–	1072.5 ± 1.6	1037.7 ± 1.6	1002.9 ± 1.6
[1], x2 = 0.7194	–	–	–	1041.5 ± 1.6	1007.1 ± 1.6	972.74 ± 1.6
[1], x2 = 0.8607	–	–	–	1010.4 ± 1.5	976.31 ± 1.5	942.3 ± 1.5
[1], x2 = 0.9562	–	–	–	993.45 ± 1.5	959.49 ± 1.5	925.65 ± 1.5
[2], x2 = 0	1.37951 ± 0.0004	1.37501 ± 0.0004	1.37016 ± 0.0004	–	–	–
[2], x2 = 0.1197	1.39001 ± 0.0004	1.38474 ± 0.0004	1.37896 ± 0.0004	–	–	–
[2], x2 = 0.1772	1.39474 ± 0.0004	1.38937 ± 0.0004	1.3835 ± 0.0004	–	–	–
[2], x2 = 0.3007	1.40415 ± 0.00039	1.39828 ± 0.00039	1.39227 ± 0.00039	–	–	–
[2], x2 = 0.4009	1.41107 ± 0.00039	1.40509 ± 0.00039	1.39897 ± 0.00039	–	–	–
[2], x2 = 0.5	1.41742 ± 0.00039	1.41126 ± 0.00039	1.40531 ± 0.00039	–	–	–
[2], x2 = 0.5978	1.42317 ± 0.00038	1.41698 ± 0.00038	1.41097 ± 0.00038	–	–	–
[2], x2 = 0.7194	1.42971 ± 0.00038	1.42362 ± 0.00038	1.41741 ± 0.00038	–	–	–
[2], x2 = 0.8607	1.4364 ± 0.00037	1.43035 ± 0.00037	1.42424 ± 0.00037	–	–	–
[2], x2 = 0.9562	1.44032 ± 0.00037	1.43408 ± 0.00037	1.42786 ± 0.00037	–	–	–

C[N+](=O)[O-] [nitromethane] + ClCCCCCl
x2 = 0
Details	refractive index, 298.15 K	refractive index, 308.15 K	refractive index, 318.15 K	speed of sound, 298.15 K [m/s]	speed of sound, 308.15 K [m/s]	speed of sound, 318.15 K [m/s]
[1]	–	–	–	1321.5 ± 1.8	1281.9 ± 1.8	1242.5 ± 1.7
[2]	1.37955 ± 0.0004	1.37482 ± 0.0004	1.37001 ± 0.0004	–	–	–

C[N+](=O)[O-] [nitromethane] + ClCCCCl
x2 = 0
Details	refractive index, 298.15 K	refractive index, 308.15 K	refractive index, 318.15 K	speed of sound, 298.15 K [m/s]	speed of sound, 308.15 K [m/s]	speed of sound, 318.15 K [m/s]
[1]	–	–	–	1321.2 ± 1.8	1281.8 ± 1.8	1242.5 ± 1.7
[2]	1.37948 ± 0.0004	1.3748 ± 0.0004	1.37007 ± 0.0004	–	–	–

C[N+](=O)[O-] [nitromethane] + ClCCCl
Details	refractive index, 298.15 K	refractive index, 308.15 K	refractive index, 318.15 K	speed of sound, 298.15 K [m/s]	speed of sound, 308.15 K [m/s]	speed of sound, 318.15 K [m/s]
[1], x2 = 0	–	–	–	1321.2 ± 1.8	1281.8 ± 1.8	1242.5 ± 1.7
[1], x2 = 0.0878	–	–	–	1298.2 ± 1.7	1259 ± 1.7	1220.1 ± 1.7
[1], x2 = 0.1939	–	–	–	1279 ± 1.6	1240.3 ± 1.6	1201.6 ± 1.6
[1], x2 = 0.2938	–	–	–	1264 ± 1.5	1225.5 ± 1.5	1187 ± 1.5
[1], x2 = 0.3998	–	–	–	1246.1 ± 1.4	1207.7 ± 1.4	1169.4 ± 1.4
[1], x2 = 0.5028	–	–	–	1236 ± 1.4	1197.7 ± 1.4	1159.5 ± 1.4
[1], x2 = 0.6154	–	–	–	1229 ± 1.3	1190.8 ± 1.3	1152.5 ± 1.3
[1], x2 = 0.7207	–	–	–	1218.7 ± 1.3	1180.5 ± 1.3	1142.2 ± 1.2
[1], x2 = 0.8326	–	–	–	1207.6 ± 1.2	1169.3 ± 1.2	1131.1 ± 1.2
[1], x2 = 0.9404	–	–	–	1201.6 ± 1.2	1163.3 ± 1.2	1125 ± 1.2
[2], x2 = 0	1.37952 ± 0.0004	1.37482 ± 0.0004	1.37009 ± 0.0004	–	–	–
[2], x2 = 0.1132	1.38846 ± 0.00039	1.38351 ± 0.00039	1.37845 ± 0.00039	–	–	–
[2], x2 = 0.2235	1.39669 ± 0.00038	1.39148 ± 0.00038	1.38609 ± 0.00038	–	–	–
[2], x2 = 0.3249	1.40379 ± 0.00036	1.39839 ± 0.00036	1.39284 ± 0.00036	–	–	–
[2], x2 = 0.4672	1.41318 ± 0.00035	1.40777 ± 0.00035	1.40213 ± 0.00035	–	–	–
[2], x2 = 0.5586	1.4188 ± 0.00034	1.41343 ± 0.00034	1.40781 ± 0.00034	–	–	–
[2], x2 = 0.6264	1.42279 ± 0.00033	1.41742 ± 0.00033	1.41184 ± 0.00033	–	–	–
[2], x2 = 0.7349	1.42888 ± 0.00033	1.42345 ± 0.00033	1.41797 ± 0.00033	–	–	–
[2], x2 = 0.857	1.43522 ± 0.00032	1.42981 ± 0.00032	1.42424 ± 0.00032	–	–	–
[2], x2 = 0.923	1.43844 ± 0.00032	1.43304 ± 0.00032	1.42748 ± 0.00032	–	–	–

ClC(Cl)Cl [trichloromethane]
Details	refractive index, 298.15 K	refractive index, 308.15 K	refractive index, 318.15 K	speed of sound, 298.15 K [m/s]	speed of sound, 308.15 K [m/s]	speed of sound, 318.15 K [m/s]
[3]	1.44209 ± 0.00037	1.43598 ± 0.00037	1.42986 ± 0.00037	–	–	–
[4]	–	–	–	984.42 ± 1.5	950.45 ± 1.5	916.63 ± 1.5

ClC(Cl)Cl [trichloromethane] + C[N+](=O)[O-]
x1 = 1
Details	refractive index, 298.15 K	refractive index, 308.15 K	refractive index, 318.15 K	speed of sound, 298.15 K [m/s]	speed of sound, 308.15 K [m/s]	speed of sound, 318.15 K [m/s]
[1]	–	–	–	984.42 ± 1.5	950.45 ± 1.5	916.63 ± 1.5
[2]	1.44209 ± 0.00037	1.43598 ± 0.00037	1.42986 ± 0.00037	–	–	–
